The source of these data is ChEMBL document CHEMBL1201862, “PubChem BioAssay data set” (2004).

The source made the active and inactive calls.

Assay [1] deals with HEK293. Briefly: HEK293T cell viability loss, resazurin readout – resazurin fluorescence, cytotoxicity control for NF-kB activator project, SAR follow-up (AID 493251). The format is functional, cell-based. To be noted: Homo sapiens.
Assay [2] addresses T1, Heat shock factor protein 1 (Mus musculus, UniProt P38532).
T1 sequence (P38532 whole entry): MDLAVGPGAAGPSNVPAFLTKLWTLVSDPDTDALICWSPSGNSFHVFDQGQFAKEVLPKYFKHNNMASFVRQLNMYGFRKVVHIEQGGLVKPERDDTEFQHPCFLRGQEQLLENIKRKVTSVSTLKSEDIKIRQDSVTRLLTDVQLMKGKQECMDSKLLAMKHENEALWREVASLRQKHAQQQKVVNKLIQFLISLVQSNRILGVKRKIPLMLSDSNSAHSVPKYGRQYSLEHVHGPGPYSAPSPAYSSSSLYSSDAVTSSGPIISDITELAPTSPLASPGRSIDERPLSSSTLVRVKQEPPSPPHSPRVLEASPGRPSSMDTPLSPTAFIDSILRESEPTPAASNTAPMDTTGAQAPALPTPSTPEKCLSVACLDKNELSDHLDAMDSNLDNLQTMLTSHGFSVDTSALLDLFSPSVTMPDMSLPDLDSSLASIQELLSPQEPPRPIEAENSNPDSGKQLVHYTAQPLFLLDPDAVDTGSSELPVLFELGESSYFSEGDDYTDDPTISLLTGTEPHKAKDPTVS
Briefly: decrease of HSF1-responsive luciferase luminescence – cell-based, NIH3T3, dose retest, confirmation (AID 2382).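 Note: NIH3T3 fibroblasts with HSF1-driven luciferase reporter stressed by proteasome inhibitor MG132; luminescence from HSF1-driven luciferase expression after 8 hours of MG132 stress.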 The format is functional.

Assay [3] deals with HEK293. Put plainly: SAR Analysis of small molecule inhibitors of T-cell specific antigen receptor-induced NF-kB activation in a HEK-293T cell line using a luminescence assay - Set 2. [Related pubchem assays (depositor defined):AID435003, AID435012, AID489026]. The assay is classed as functional, cell-based. To be noted: Homo sapiens.
For the next assay, the system named is Jurkat. Put plainly: SAR Analysis of small molecule inhibitors of T-cell specific antigen receptor-induced NF-kB activation in a Jurkat cell line using a luminescence assay - Set 2. [Related pubchem assays (depositor defined):AID435003, AID435012, AID465]. The format is functional, cell-based. To be noted: Homo sapiens.
The target of assay [4] is T2, Protein Wnt-3a (Mus musculus, UniProt P27467). Put plainly: SAR analysis of small molecule antagonists of Gli-SUFU in a Wnt3a luminescent reporter assay. The assay is classed as functional. Background: Reporter assays use an easily measured gene product as a stand-in for the process of interest.
The nature of assay [5]: HEK-293T cell viability reduction – luminescence, B-cell screen hits, cytotoxicity control for BCR NF-kB inhibitor project, dose response (AID 489021).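 Note: HEK-293T cells carrying an NF-kB luciferase reporter; cells exposed to compound for about 14 hours before viability readout.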 The format is functional, cell-based.
The target in the next assay is DNA topoisomerase (Yersinia pestis, UniProt A0A2S9PM60). Put plainly: Yersinia topoisomerase I cleavage product accumulation – biochemical, cherry-pick, dose response (AID 588525).
Assay [6] concerns Candida albicans. Briefly: single-agent toxicity toward C. albicans – CaCi-2 strain, no fluconazole, dry powder, set 4, counter-screen for reversing antifungal drug resistance, dose response (AID 488932). The format is functional, organism-based. For orientation: Counterscreens check selectivity or assay interference.
Assay [7] relates to Candida albicans. Put plainly: resistant Candida growth with fluconazole co-treatment – CaCi-8 strain, Alamar Blue, dry powder, set 2, dose response (AID 488909). The format is functional, organism-based.
Assay [8] has as its system Candida albicans. Briefly: Candida growth reduction in fluconazole presence – CaCi-2 strain, Alamar Blue, dry powder, set 2, antifungal resistance reversal project, dose response (AID 488930). The assay is classed as functional, organism-based. (In general: The colour change of resazurin is a common sign of viable cells or microbes.)
In assay [9] the target is T2, Protein Wnt-3a. Briefly: antagonism of Wnt3a pathway luciferase reporter – Wnt-LIGHT cells, luminescence, selectivity assay for Gli-SUFU antagonist project, dose response (AID 651570).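 Note: Wnt-LIGHT reporter cells stimulated with conditioned medium from Wnt3a-producing cells.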 The assay is classed as functional. The settings on record: read-out: IC50_Mean.
Assay [10] deals with Candida albicans. Briefly: C. albicans growth inhibition with fluconazole – CaCi-2 strain, Alamar Blue, dry powder, set 4, dose response (AID 488943). The format is functional, organism-based.
Assay [11] has as its system HEK293. Briefly: EBV LMP1 TES2 canonical NF-kB signalling blockers – cell-based, HEK293, luciferase, cherry-pick, dose response (AID 588343). The settings on record: Homo sapiens. The format is functional.
Assay [12] concerns Candida albicans. Briefly: fluconazole-resistant Candida strain growth inhibitors – CaCi-8 strain, dry powder, set 4, dose response (AID 488950). The assay is classed as functional, organism-based.

T2 sequence (P27467 whole entry): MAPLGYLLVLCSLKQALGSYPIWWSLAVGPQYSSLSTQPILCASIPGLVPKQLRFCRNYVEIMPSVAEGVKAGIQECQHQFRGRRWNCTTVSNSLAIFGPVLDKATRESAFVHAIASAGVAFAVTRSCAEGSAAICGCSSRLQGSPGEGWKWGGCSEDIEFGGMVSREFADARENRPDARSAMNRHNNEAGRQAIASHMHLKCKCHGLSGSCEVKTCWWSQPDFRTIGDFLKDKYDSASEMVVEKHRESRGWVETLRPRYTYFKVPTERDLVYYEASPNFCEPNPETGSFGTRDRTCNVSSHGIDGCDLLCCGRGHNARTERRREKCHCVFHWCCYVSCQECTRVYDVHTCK
DNA topoisomerase, sequence (A0A2S9PM60 whole entry): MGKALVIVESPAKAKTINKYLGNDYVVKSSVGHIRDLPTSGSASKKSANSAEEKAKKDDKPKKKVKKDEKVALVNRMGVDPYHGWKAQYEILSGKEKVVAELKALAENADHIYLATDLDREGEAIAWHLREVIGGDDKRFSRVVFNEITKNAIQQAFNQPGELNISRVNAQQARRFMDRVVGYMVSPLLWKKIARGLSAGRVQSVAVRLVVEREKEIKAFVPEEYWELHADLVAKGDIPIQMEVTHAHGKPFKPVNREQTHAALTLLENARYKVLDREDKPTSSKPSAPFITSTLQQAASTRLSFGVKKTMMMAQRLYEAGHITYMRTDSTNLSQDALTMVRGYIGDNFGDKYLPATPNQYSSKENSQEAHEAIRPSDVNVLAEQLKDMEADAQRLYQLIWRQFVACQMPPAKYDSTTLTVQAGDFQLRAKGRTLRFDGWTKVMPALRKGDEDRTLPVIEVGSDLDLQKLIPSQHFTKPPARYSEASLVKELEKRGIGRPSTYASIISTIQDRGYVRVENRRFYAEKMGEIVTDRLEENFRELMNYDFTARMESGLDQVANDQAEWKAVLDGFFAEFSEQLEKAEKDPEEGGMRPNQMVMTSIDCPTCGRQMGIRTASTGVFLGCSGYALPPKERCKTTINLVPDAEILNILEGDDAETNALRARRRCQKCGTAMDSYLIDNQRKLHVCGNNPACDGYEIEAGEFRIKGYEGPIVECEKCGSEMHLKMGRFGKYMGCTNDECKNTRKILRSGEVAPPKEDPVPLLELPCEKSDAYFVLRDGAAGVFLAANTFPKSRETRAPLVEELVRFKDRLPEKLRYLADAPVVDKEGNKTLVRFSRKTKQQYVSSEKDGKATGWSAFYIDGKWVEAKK

Consider `CCOc1ccc(-c2nc(CSCC(=O)NC3CC3)c(C)o2)cc1`, for which the IC50 in the assay on HEK293 [1] was > 80 µM (inactive); in the assay on HEK293 [3], > 80 µM (inactive); with Jurkat, > 79 µM (inactive); at Protein Wnt-3a [4], > 21.8 µM (inactive); in [5], > 80 µM (inactive). The EC50 in assay [2] was 241 nM (active).

For the compound `Cc1cc(C(=O)Cn2nc(C(=O)O)c3ccccc3c2=O)c(C)n1-c1ccc(OC(F)F)cc1`, the AC50 on DNA topoisomerase was 4.1 µM (active).

`O=C(C1CCCCC1)N1CCN(c2ccnc3cc(Cl)ccc23)CC1`: the AC50 with Candida albicans [6] is 200 µM (active); with Candida albicans [7], 5.02 µM (active); in the assay with Candida albicans [8], 661 nM (active); with Candida albicans [10], 688 nM (active); in the assay on HEK293 [11], 12.5 µM (active); in the assay with Candida albicans [12], 1.01 µM (active). The IC50 on Protein Wnt-3a [9] is 10.4 µM (active).

Usually EC50 stands for the midpoint of the concentration-response curve. Usually AC50 stands for the concentration at which the activity in the assay is half-maximal.
